Reference: patent US20210198647A1, “Enhancers of Neurolysin Activity” (Texas Tech University System, priority 2018, published 2021)
Several values for one entry are separate records, joined by “and”; a condition that tells them apart may be missing. Equal values may be shown once. Read-outs that look alike come from different tables or passages of the source. Square brackets hold non-standard residues; d marks the D form. Peptide text beside a SMILES is read from it. * marks the point of attachment. NHPhenethyl = c1ccc(CCN*)cc1; Boc = CC(C)(C)OC(=O)*

Target: T1, Neurolysin (Nln) (Rattus norvegicus, UniProt P42676)
T1 construct: polyhistidine (N); made in house; host or cells: Escherichia coli (pBAD/His vector), if the rat enzyme of b61 was used
T1 sequence (P42676 38-704): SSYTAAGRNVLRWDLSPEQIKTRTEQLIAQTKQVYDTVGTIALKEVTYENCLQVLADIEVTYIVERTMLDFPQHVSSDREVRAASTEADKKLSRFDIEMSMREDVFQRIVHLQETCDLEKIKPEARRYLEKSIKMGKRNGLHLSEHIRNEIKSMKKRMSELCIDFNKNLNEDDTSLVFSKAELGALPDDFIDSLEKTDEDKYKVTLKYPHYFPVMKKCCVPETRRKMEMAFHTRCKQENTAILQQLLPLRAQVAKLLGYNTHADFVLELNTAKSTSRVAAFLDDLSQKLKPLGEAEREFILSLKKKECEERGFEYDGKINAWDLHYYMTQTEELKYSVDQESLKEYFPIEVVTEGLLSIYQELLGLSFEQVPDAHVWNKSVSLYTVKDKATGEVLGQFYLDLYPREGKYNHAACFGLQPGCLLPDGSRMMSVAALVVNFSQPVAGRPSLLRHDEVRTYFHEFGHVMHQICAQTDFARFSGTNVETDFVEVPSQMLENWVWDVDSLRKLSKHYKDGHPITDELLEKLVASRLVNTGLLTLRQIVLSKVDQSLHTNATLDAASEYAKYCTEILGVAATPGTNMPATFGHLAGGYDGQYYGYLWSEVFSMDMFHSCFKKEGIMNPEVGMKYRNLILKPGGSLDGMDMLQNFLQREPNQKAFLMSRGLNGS
Assay: Nln activation in isolated enzyme assay (A50, Amax)
Format: biochemical
Conditions: for EC50: read-out: A50 (concentration required to activate Nln by 50%)

[1] = 100% = normal enzyme turnover, 95% CI in parentheses

Compound	Amax (maximum % activation achieved)	Amax (maximum % activation achieved) [1]	also measured
CC(C)(C)OC(=O)N[C@@H](Cc1c[nH]cn1)C(=O)NCCc1ccccc1		Inactive	A50 (concentration required to activate Nln by 50%) (95% CI in parentheses): Inactive
CC(C)(C)OC(=O)N[C@@H](Cc1c[nH]cn1)C(=O)NCCc1c[nH]c2ccccc12		Inactive	A50 (concentration required to activate Nln by 50%) (95% CI in parentheses): Inactive
NC(Cc1c[nH]cn1)C(=O)NCCc1cc2ccccc2[nH]1 (racemic) [(±)PT-1-173 RACEMIC]	311 (298.6 to 325.7) %		
N[C@H](Cc1c[nH]cn1)C(=O)NCc1ccc(C(F)(F)F)cc1 (single isomer, unassigned) [AB1-17-2]	598.8 (532.8 to 692.9) %		
N[C@H](Cc1c[nH]cn1)C(=O)NCCc1ccc(C(F)(F)F)cc1 (single isomer, unassigned) [AB-1-8-2]	643 (588.8 to 714) %		
N[C@@H](Cc1c[nH]cn1)C(=O)Nc1ccccc1 (single isomer, unassigned) [DF-5-2A]		139.8 (124.7 to 158.4) %	EC50 (95% CI in parentheses): 7.74 µM
N[C@@H](Cc1c[nH]cn1)C(=O)N[C@@H](Cc1ccccc1)C(=O)O (stereo in doubt) [Compound 3, His-Phe]		573 (547.9 to 602.7) %	EC50 (95% CI in parentheses): 130 µM; Amax (maximum % activation achieved) (100% = normal enzyme turnover, 95% CI in parentheses, listed as His-Phe): 573 (547.9 to 602.7) %
N[C@@H](Cc1c[nH]cn1)C(=O)NCCc1ccc(C(F)(F)F)cc1 [AB 3-2-2]	438.4 (379.4 to 520.4) %		
N[C@@H](Cc1ccccn1)C(=O)NCCc1ccccc1 [AB-1-3-2]		Inactive	A50 (concentration required to activate Nln by 50%) (95% CI in parentheses): Inactive
COc1ccc(CCNC(=O)[C@@H](N)Cc2c[nH]cn2)cc1 [AB-1-4-2]		544 (492.2 to 609.4) %	
N[C@@H](Cc1c[nH]cn1)C(=O)NCc1cccc(C(F)(F)F)c1 [AB-1-6-2]	494.4 (476.7 to 512.9) %		
N[C@H](Cc1cnc[nH]1)C(=O)NCc1cccc(C(F)(F)F)c1 [AB-1-9-2]	184.4 (169.4 to 201.5) %		
COc1cccc(CNC(=O)[C@H](N)Cc2cnc[nH]2)c1 [AB-1-14-2]	477.1 (444 to 516) %		
COc1ccc(CNC(=O)[C@H](N)Cc2cnc[nH]2)cc1 [AB-1-16-2]	703.5 (588.9 to 915.6) %		
N[C@@H](Cc1c[nH]cn1)C(=O)N[C@@H](Cc1ccccc1)C(=O)NCCc1ccccc1 [AB-2-5-4] (H-His-Phe-NHPhenethyl)		177.6 (158.7 to 198.1) %	EC50 (95% CI in parentheses): 5.4 µM
N[C@H](Cc1c[nH]cn1)C(=O)NCCc1ccccc1 [AB-2-7-2]		407 (382.7 to 434.9) %	
N[C@@H](Cc1c[nH]cn1)C(=O)N[C@@H](Cc1ccc(O)cc1)C(=O)O [Compound 1, Histidine-tyrosine] (H-His-Tyr-OH)		467 (424.9 to 516.9) %	Amax (maximum % activation achieved) (100% = normal enzyme turnover, 95% CI in parentheses, listed as His-Tyr): 467 (424.9 to 516.9) %
N[C@@H](Cc1c[nH]cn1)C(=O)N[C@H](Cc1c[nH]cn1)C(=O)O [Compound 2]		202.8 (192.2 to 213.4) %	
N[C@@H](Cc1ccc(O)cc1)C(=O)N[C@H](Cc1c[nH]cn1)C(=O)O [Compound 4a, H-Try-His-OH] (H-Tyr-[dH]-OH)		Inactive	Nln activation (in words): complete amelioration of Nln activation; A50 (concentration required to activate Nln by 50%) (95% CI in parentheses): Inactive
CC(C)(C)OC(=O)N[C@@H](Cc1c[nH]cn1)C(=O)N[C@H](Cc1ccccc1)C(=O)O [Compound 4b] (Boc-His-[dF]-OH)			Nln activation (in words): inactive

Compound	Amax (maximum % activation achieved)	Amax (maximum % activation achieved) [1]	also measured
N[C@@H](Cc1c[nH]cn1)C(=O)NCCc1ccccc1 [Compound 4c, (S)-2-amino-3-(1H-imidazol-4-yl)-N-phenethylpropanamide]		337.2 (302-378.6) %	
N[C@H](Cc1c[nH]cn1)C(=O)NCCc1ccccc1 [Compound 4d, (R)-2-amino-3-(1H-imidazol-4-yl)-N-phenethylpropanamide]		294.6 (278.0 to 313) %	
COc1ccc(CCNC(=O)[C@@H](N)Cc2c[nH]cn2)cc1 [Compound 4e, (S)-2-amino-3-(1H-imidazol-4-yl)-N-(4-methoxyphenethyl)propanamide]		339.4 (314.2 to 369.3) %	
COc1ccc(CCNC(=O)[C@H](N)Cc2c[nH]cn2)cc1 [Compound 4f, (R)-2-amino-3-(1H-imidazol-4-yl)-N-(4-methoxyphenethyl)propanamide]		378.3 (350.5 to 411.9) %	
N[C@H](Cc1c[nH]cn1)C(=O)NCCc1ccc(C(F)(F)F)cc1 [Compound 4l, (R)-2-amino-3-(1H-imidazol-4-yl)-N-(4-(trifluoromethyl)phenethyl)propanamide]	330.1 (313.9 to 347.7) %		
N[C@@H](Cc1c[nH]cn1)C(=O)NCCc1ccc(F)cc1 [Compound 4m, (S)-2-amino-N-(4-fluorophenethyl)-3-(1H-imidazol-4-yl)propanamide]		323.1 (311.4 to 335.6) %	EC50 (95% CI in parentheses): 28 µM and 27.9 µM
N[C@H](Cc1c[nH]cn1)C(=O)NCCc1ccc([N+](=O)[O-])cc1 [Compound 4p, (R)-2-amino-3-(1H-imidazol-4-yl)-N-(4-nitrophenethyl)propanamide]	267.5 (250.1 to 287.1) %		
N[C@@H](Cc1c[nH]cn1)C(=O)Nc1ccccc1 [Compound 6a, (S)-2-amino-3-(1H-imidazol-4-yl)-N-phenylpropanamide]		467% and 466.6%	EC50 (95% CI in parentheses): 252 µM
N[C@H](Cc1c[nH]cn1)C(=O)Nc1ccccc1 [Compound 6b, (R)-2-amino-3-(1H-imidazol-4-yl)-N-phenylpropanamide]		440.3 (414.9 to 470.4) %	EC50 (95% CI in parentheses): 114 µM
N[C@@H](Cc1c[nH]cn1)C(=O)NCCCc1ccccc1 [Compound 7a, (S)-2-amino-3-(1H-imidazol-4-yl)-N-(3-phenylpropyl)propanamide]		288.1 (273.6 to 303.8) %	
N[C@H](Cc1c[nH]cn1)C(=O)NCCCc1ccccc1 [Compound 7b, (R)-2-amino-3-(1H-imidazol-4-yl)-N-(3-phenylpropyl)propanamide]		281.8 (269.9-294.5) %	
N[C@@H](Cc1c[nH]cn1)C(=O)NCCCCc1ccccc1 [Compound 8a, (S)-2-amino-3-(1H-imidazol-4-yl)-N-(4-phenylbutyl)propanamide]		328 (309-351) %	
N[C@H](Cc1c[nH]cn1)C(=O)NCCCCc1ccccc1 [Compound 8b, (R)-2-amino-3-(1H-imidazol-4-yl)-N-(4-phenylbutyl)propanamide]		233.8 (215.9 to 254.8) %	
N[C@H](Cc1c[nH]cn1)C(=O)NCc1ccc2ccccc2c1 [Compound 10b, (R)-2-amino-3-(1H-imidazol-4-yl)-N-(naphthalen-2-ylmethyl)propanamide]		197.5 (184.9 to 214.8) %	EC50 (95% CI in parentheses): 6.3 µM
N[C@H](Cc1c[nH]cn1)C(=O)NCc1cccc2ccccc12 [Compound 10d, (R)-2-amino-3-(1H-imidazol-4-yl)-N-(naphthalen-1-ylmethyl)propanamide]		343 (325.2 to 363.5) %	
N[C@H](Cc1c[nH]cn1)C(=O)Nc1cccc2cccnc12 [Compound 11b, (R)-2-amino-3-(1H-imidazol-4-yl)-N-(quinolin-8-yl)propanamide]		255.2 (239.9 to 278.9) %	
O=C1NC(Cc2c[nH]cn2)C(=O)N2CCCC12 (stereo not drawn) [Cyclo(His-Pro)]		Inactive	A50 (concentration required to activate Nln by 50%) (95% CI in parentheses): Inactive
N[C@@H](Cc1c[nH]cn1)C(=O)NCCc1ccc(F)cc1 [DF-2-2B]		323.1 (311.4 to 335.6) %	EC50 (95% CI in parentheses): 27.9 µM
N[C@@H](Cc1c[nH]cn1)C(=O)NCc1ccccc1 [DF-3-2B]	152.2 (137.3 to 171.5) %		
N[C@@H](Cc1c[nH]cn1)C(=O)NCc1ccc(F)cc1 [DF-6-2A]	252 (235.6 to 270.5) %		

The next lines start with results.

Amax (maximum % activation achieved)	Compound	Amax (maximum % activation achieved) [1]	also measured
385.8 (363.8 to 410.5) %	COc1ccccc1CNC(=O)[C@@H](N)Cc1c[nH]cn1 [Compound 5d]		
327.5 (309.7 to 348.2) %	COc1cccc(CNC(=O)[C@@H](N)Cc2c[nH]cn2)c1 [Compound 5f]		
319.1 (296.3 to 344.3) %	N[C@H](Cc1c[nH]cn1)C(=O)NCc1ccc(C(F)(F)F)cc1 [Compound 5i, (R)-2-amino-3-(1H-imidazol-4-yl)-N-(4-(trifluoromethyl)benzyl)propanamide]		
345.8 (317.5 to 378.3) %	N[C@H](Cc1c[nH]cn1)C(=O)NCc1ccccc1C(F)(F)F [Compound 5k, (R)-2-amino-3-(1H-imidazol-4-yl)-N-(2-(trifluoromethyl)benzyl)propanamide]		
282 (258.4 to 309.1) %	N[C@H](Cc1c[nH]cn1)C(=O)NCc1cccc(C(F)(F)F)c1 [Compound 5m]		
293 (276.5-310.7) %	N[C@@H](Cc1c[nH]cn1)C(=O)NCc1ccc(F)cc1 [Compound 5n, (S)-2-amino-N-(4-fluorobenzyl)-3-(1H-imidazol-4-yl)propanamide]		
320.5 (299.7 to 343.9) %	N[C@H](Cc1c[nH]cn1)C(=O)NCc1ccc(F)cc1 [Compound 5o, (R)-2-amino-N-(4-fluorobenzyl)-3-(1H-imidazol-4-yl)propanamide]		
310 (287.2 to 336.1) %	N[C@@H](Cc1c[nH]cn1)C(=O)NCc1ccc(OC(F)(F)F)cc1 [Compound 5p]		
337.1 (312 to 364.9) %	N[C@H](Cc1c[nH]cn1)C(=O)NCc1ccc(OC(F)(F)F)cc1 [Compound 5q, (R)-2-amino-3-(1H-imidazol-4-yl)-N-(4-(trifluoromethoxy)benzyl)propanamide]		
287.5 (277.4 to 298.4) %	N[C@@H](Cc1c[nH]cn1)C(=O)NCc1ccc(SC(F)(F)F)cc1 [Compound 5r]		
